Laboratory results taken from EP0955045A1, “DRUGS FOR IMPROVING OCULAR CIRCULATION DISORDERS” (Senju Pharmaceutical Co., Ltd., priority 1996, dated 1998).
Structures can show the parent of a compound that is named as a salt. Where two headings read alike, the source gives them in different places.

Assays:
mice = settings: cited from earlier work
[1] = system: blood flow of optic nerve head induced by intravitreous injection of ET-1; experiment: Effect of topical instillation on the ET-1-induced decrease in optic nerve head blood flow (hydrogen clearance method); type: in vivo, Male Dutch pigmented rabbits; settings: versus physiological saline in contralateral eye; 30 to 120 minutes after ET-1 injection; paired t-test; n=6
Experimental: The effect of topically applied amosulalol hydrochloride on the blood flow of optic nerve head induced by intravitreous injection of ET-1 in pigmented rabbits.
Male Dutch pigmented rabbits weighing about 2 kg were purchased from Fukusaki Rabbit Farmers Association and used after confirmation of absence of ocular abnormality. The rabbits were housed at 23 ±3 °C and 55±10% R.H. and put on a ration of 100 g/day of rabbit chow (Labo R Stock, Nippon Nosan Kogyo K.K.) with free access to tap water.
As the investigational drug, the anti-ocular circulatory disturbance composition containing 0.5% (w/v) of amosulalol hydrochloride as obtained in Example 7 was used. As a control drug, physiological saline solution was used. […]
The rabbit was placed in a retainer for rabbits and, after instillation of Mydrin P (Registered Trademark, Santen Pharmaceutical) for mydriasis and observation of the optic nerve head for any abnormality, general anesthesia was introduced by injecting urethane (dissolved in distilled water to 20% concentration), 1 g/kg, subcutaneously in the abdominal region. […] The half-life (T1/2) was determined from the line and the blood flow was calculated by means of Kety's theoretical formula (Journal of Clinical Investigate, 27, 476-483, 1948). […]

For COc1ccccc1OCCNCC(O)c1ccc(C)c(S(N)(=O)=O)c1 (stereo not drawn) [amosulalol hydrochloride, 5-{1-hydroxy-2-[2-(2-methoxyphenoxy)ethylamino]ethyl}-2-methylbenzenesulfonamide], which acute toxicity (mice; intravenous administration) is on record?
The acute toxicity was “very low”.

What about the acute toxicity (mice; oral administration) of the same molecule?
Its acute toxicity is “very low”.

What about the “inhibition of the ET-1-induced decrease in blood flow” value [1] of the same molecule?
The value was “inhibited”.
